Laboratory results published in patent publication US20240336977A1, “MICRORNA-REGULATED BIOMARKERS AND DRUG TARGETS FOR IMPROVING DIAGNOSIS AND TREATMENT OF LUNG OR BREAST CANCER” (West Virginia University Board of Governors on behalf of …, priority 2023, published 2024).
Each block holds one molecule with its values, some of them ahead of it.

How the values were obtained:
human NSCLC cell lines = test: PRISM drug response (IC50/EC50) in CCLE NSCLC cell lines; format: cell-based; conditions: average across CCLE human NSCLC cell lines, PRISM data
Excerpt: Drug Response. The PRISM (Profiling Relative Inhibition Simultaneously in Mixtures) framework [Corsello, S. M., et al., Discovering the anti-cancer potential of non-oncology drugs by systematic viability profiling. […] 235-248] is a computational tool that estimates drug sensitivities of cancer cell lines using molecular profiling data, particularly gene expression data from the CCLE database. It was obtained the PRISM repurposing dataset of the secondary screen from DepMap release PRISM Repur-posing 19Q4 (https://depmap.org/portal/download/all/, accessed on 25 Jan. 2023). For this study, the PRISM drug response data was used from 94 NSCLC cell lines for 1,448 compounds to investigate the drug sensitivity of specific genes.

[1] = Phase II clinical studies; cited from earlier work
HCC38 = test: Drug sensitivity (PRISM) of breast cancer cell line HCC38; format: cell-based, human; conditions: TNBC cell line HCC38; categorised from IC50, ln(IC50), EC50, ln(EC50)
Excerpt: (§1) Drug Sensitivity Data of Breast Cancer Cell Lines The drug sensitivity data of breast cancer cell lines were obtained from two distinct sources. The first source was the Profiling Relative Inhibition Simultaneously in Mixtures (PRISM) [Corsello, S. M.; Nagari, R. T.; Spangler, R. D.; Rossen, J.; Kocak, M.; Bryan, J. G.; Humeidi, R.; Peck, D.; Wu, X.; Tang, A. A.; et al. Discovering the anti-cancer potential of non-oncology drugs by systematic viability profiling. Nature cancer 2020, 1, 235-248, doi:10.1038/s43018-019-0018-6] secondary screen data, which was provided in the DepMap 19Q4 data release (https://depmap.org/portal, accessed on 23 May 2023). The second source encompassed the Genomics of Drug Sensitivity in Cancer (GDSC1 and GDSC2) datasets [Yang, W.; Soares, J.; Greninger, P.; Edelman, E. J.; Lightfoot, H.; Forbes, S.; Bindal, N.; Beare, D.; Smith, J. A.; Thompson, I. R.; et al. Genomics of Drug Sensitivity in Cancer (GDSC): a resource for therapeutic biomarker discovery in cancer cells. Nucleic acids research 2013, 41, D955-961, doi:10.1093/nar/gksllll, Iorio, F.; Knijnenburg, T. A.; Vis, D. J.; Bignell, G. R.; Menden, M. P.; Schubert, M.; Aben, N.; Goncalves, E.; Barthorpe, S.; Lightfoot, H.; et al. A Landscape of Pharmacogenomic Interactions in Cancer. Cell 2016, 166, 740-754, doi:10.1016/j.cell.2016.06.017, Garnett, M. J.; Edelman, E. J.; Heidorn, S. J.; Greenman, C. D.; Dastur, A.; Lau, K. W.; Greninger, P.; Thompson, I. R.; Luo, X.; Soares, J.; et al. Systematic identification of genomic markers of drug sensitivity in cancer cells. Nature 2012, 483, 570-575, doi:10.1038/nature11005], which were made available through CancerRxGene (https://www.cancerrxgene.org/, accessed on 25 May 2023). In this study, we examined drug sensitivity using various measurements, including IC50, ln(IC50), EC50, and ln(EC50). Further details regarding the categorization of drug sensitivity and resistance can be found in our previous work [Ye, Q.; Mohamed, R.; Dukhlallah, D.; Gencheva, M.; Hu, G.; Pearce, M. C.; Kolluri, S. K.; Marsh, C. B.; Eubank, T. D.; Ivanov, A. V.; et al. Molecular Analysis of ZNF71 KRAB in Non-Small-Cell Lung Cancer. International journal of molecular sciences 2021, 22, doi:10.3390/ijms22073752, Ye, Q.; Singh, S.; Qian, P. R.; Guo, N. L. Immune-Omics Networks of CD27, PD1, and PDL1 in Non-Small Cell Lung Cancer. Cancers (Basel) 2021, 13, doi:10.3390/cancers13174296].
(§2) For drug sensitivity analysis, we classified the breast cancer cell lines as sensitive or resistant to each drug based on the measurements of IC50, ln(IC50), EC50, and ln(EC50), following the classification method described in our previous publications. Both mRNA and protein expression levels were considered in determining the association with drug sensitivity.
(§3) Drug Sensitivity in CCLE. This study used drug sensitivity data of human breast cancer cell lines from various sources. The DepMap portal provided the secondary Profiling Relative Inhibition Simultaneously in Mixtures (PRISM) [Corsello, S. M.; Nagari, R. T.; Spangler, R. D.; Rossen, J.; Kocak, M.; Bryan, J. G.; Humeidi, R.; Peck, D.; Wu, X.; Tang, A. A.; et al. Discovering the anti-cancer potential of non-oncology drugs by systematic viability profiling. Nat. Cancer 2020, 1, 235-248. https://doi.org/10.1038/s43018-019-0018-6] repurposing dataset (PRISM repurposing 19Q4, accessed on 3 Apr. 2023), which includes screening results of 1447 compounds in 22 human breast cancer cell lines. Additionally, we downloaded the Genomics of Drug Sensitivity in Cancer (GDSC1 and GDSC2) datasets [Yang, W.; Soares, J.; Greninger, P.; Edelman, E. J.; Lightfoot, H.; Forbes, S.; Bindal, N.; Beare, D.; Smith, J. A.; Thompson, I. R.; et al. Genomics of Drug Sensitivity in Cancer (GDSC): A resource for therapeutic biomarker discovery in cancer cells. […]

MCF7 cells = test: Drug sensitivity categorisation of breast cancer cell line MCF7; format: cell-based, human; conditions: Luminal A MCF7 cells; categorised from IC50, ln(IC50), EC50, ln(EC50)
Excerpt: as §1, §2

[2] = Phase I clinical trials; cited from earlier work
HCC1143 = test: Drug sensitivity categorisation of breast cancer cell line HCC1143; format: cell-based, human; conditions: TNBC cell line HCC1143; categorised from IC50, ln(IC50), EC50, ln(EC50)
Excerpt: as §1, §2

HCC1806 = test: Drug sensitivity categorisation of breast cancer cell line HCC1806; format: cell-based, human; conditions: TNBC cell line HCC1806; categorised from IC50, ln(IC50), EC50, ln(EC50)
Excerpt: as §1, §2

HCC1937 = test: Drug sensitivity (PRISM) of breast cancer cell line HCC1937; format: cell-based, human; conditions: TNBC cell line HCC1937; categorised from IC50, ln(IC50), EC50, ln(EC50)
Excerpt: as §1, §2, §3

advanced solid tumors = conditions: Phase I, cited from earlier work
T47D breast cancer cells = conditions: cited from earlier work
[3] = patients with advanced solid tumors

averaged IC50 and EC50 (human NSCLC cell lines): low
SMILES: O=C(Nc1cccc(Nc2ncc(Br)c(NCCc3cnc[nH]3)n2)c1)N1CCCC1 [BX-912]

SMILES: O=C(NOCC1CC1)c1ccc(F)c(F)c1Nc1ccc(I)cc1Cl [PD184352]
efficacy [1]: insufficient efficacy
cell line sensitive or resistant to drug (HCC38): resistant
cell line sensitive or resistant to drug (MCF7 cells): sensitive
tolerability [2]: well tolerated
cell line sensitive or resistant to drug (HCC1143): sensitive

SMILES: O=C(NC[C@H](O)CO)c1ccncc1Nc1ccc(I)cc1F [AS703026]
cell line sensitive or resistant to drug (HCC1806): resistant
cell line sensitive or resistant to drug (HCC1937): resistant

SMILES: COc1cccc2c1C(=O)c1c(O)c3c(c(O)c1C2=O)C[C@@](O)(C(C)=O)C[C@@H]3O[C@H]1C[C@H](N)[C@H](O)[C@H](C)O1 [daunorubicin]
averaged IC50 and EC50 (human NSCLC cell lines): low

SMILES: CNC(=O)c1cc(Oc2ccc(NC(=O)Nc3ccc(Cl)c(C(F)(F)F)c3)cc2)ccn1 [sorafenib]
cell line sensitive or resistant to drug (HCC38): sensitive
cell line sensitive or resistant to drug (HCC1806): sensitive

SMILES: c1ccc2c(CCNc3ccc(Nc4ccncc4)cc3)c[nH]c2c1 [serdemetan]
cell line sensitive or resistant to drug (HCC38): sensitive
tumor response (advanced solid tumors; a breast cancer patient): partial response
QTc liability (advanced solid tumors; [3]): exposure-related QTc liability
tolerability (advanced solid tumors; [3]): well tolerated
cell line sensitive or resistant to drug (HCC1143): sensitive

SMILES: Cc1cn(-c2cc(NC(=O)c3ccc(C)c(Nc4nccc(-c5cccnc5)n4)c3)cc(C(F)(F)F)c2)cn1 [nilotinib]
cell line sensitive or resistant to drug (HCC38): resistant
cell line sensitive or resistant to drug (HCC1806): sensitive
cell line sensitive or resistant to drug (HCC1937): resistant
cell line sensitive or resistant to drug (HCC1143): resistant

SMILES: O=C(NOC[C@H](O)CO)c1ccc(F)c(F)c1Nc1ccc(I)cc1F [PD0325901]
cell line sensitive or resistant to drug (HCC38): resistant
cell line sensitive or resistant to drug (HCC1806): sensitive
cell line sensitive or resistant to drug (MCF7 cells): resistant
cell line sensitive or resistant to drug (HCC1937): resistant
cell line sensitive or resistant to drug (HCC1143): sensitive

SMILES: C(#CCN1CCCC1)CN1CCCC1 [tremorine]
cell line sensitive or resistant to drug (HCC38): sensitive
cell line sensitive or resistant to drug (HCC1806): sensitive
cell line sensitive or resistant to drug (HCC1937): sensitive
cell line sensitive or resistant to drug (HCC1143): sensitive

SMILES: N#C/C(=C(/N)Sc1ccc(N)cc1)c1ccccc1C(F)(F)F [BRD-K12244279]
cell line sensitive or resistant to drug (MCF7 cells): resistant

SMILES: Cc1cnc(Nc2ccc(OCCN3CCCC3)cc2)nc1Nc1cccc(S(=O)(=O)NC(C)(C)C)c1 [TG101348]
cell line sensitive or resistant to drug (HCC1806): sensitive
cell line sensitive or resistant to drug (MCF7 cells): sensitive
cell line sensitive or resistant to drug (HCC1937): sensitive

SMILES: COc1cccc(-c2cc(=O)c3ccccc3o2)c1N [PD98059]
cell line sensitive or resistant to drug (HCC38): sensitive
cell line sensitive or resistant to drug (HCC1806): sensitive
cell line sensitive or resistant to drug (MCF7 cells): sensitive
cell line sensitive or resistant to drug (HCC1937): resistant
ERK phosphorylation response to MEK inhibition (T47D breast cancer cells): resistance

SMILES: C[C@@H](N)[C@H]1CC[C@H](C(=O)Nc2ccncc2)CC1 [Y-27632]
cell line sensitive or resistant to drug (HCC38): sensitive
cell line sensitive or resistant to drug (HCC1806): sensitive
cell line sensitive or resistant to drug (HCC1143): sensitive

SMILES: OCc1ccc(-c2ccc(-c3ccc(CO)s3)o2)s1 [RITA]
cell line sensitive or resistant to drug (HCC38): sensitive
cell line sensitive or resistant to drug (HCC1806): sensitive
cell line sensitive or resistant to drug (MCF7 cells): sensitive
cell line sensitive or resistant to drug (HCC1937): sensitive
cell line sensitive or resistant to drug (HCC1143): sensitive

SMILES: Cc1cc(I)ccc1Nc1c(C(=O)NOCC2CC2)cc(F)c(F)c1F [PD198306]
cell line sensitive or resistant to drug (HCC38): resistant
cell line sensitive or resistant to drug (HCC1806): sensitive
cell line sensitive or resistant to drug (MCF7 cells): sensitive
cell line sensitive or resistant to drug (HCC1937): resistant
ERK phosphorylation response to MEK inhibition (T47D breast cancer cells): resistance
cell line sensitive or resistant to drug (HCC1143): sensitive

SMILES: CC[C@@H]1C(=O)OC[C@@H]1Cc1cncn1C [pilocarpine]
cell line sensitive or resistant to drug (HCC38): sensitive
cell line sensitive or resistant to drug (HCC1806): sensitive
cell line sensitive or resistant to drug (HCC1937): sensitive
cell line sensitive or resistant to drug (HCC1143): sensitive

SMILES: N#CC(=C(/N)Sc1ccccc1N)/C(C#N)=C(\N)Sc1ccccc1N [U0126]
cell line sensitive or resistant to drug (MCF7 cells): sensitive
ERK phosphorylation response to MEK inhibition (T47D breast cancer cells): resistance
